# Data from PubChem BioAssay (NCI).
#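 Test compounds were applied to cells in 96-well plates for 48 hours at 5 doses. Definition used: TGI = concentration required for complete inhibition of growth.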
# Experiments:
# Assay in all cases: inhibition of tumour cell growth, NCI panel, 48 h
# A549 NSCLC = tested on: A549 NSCLC
# EKVX NSCLC = tested on: EKVX NSCLC
# HCT-116 colon = tested on: HCT-116 colon
# HOP-92 NSCLC = tested on: HOP-92 NSCLC
# LOX IMVI melanoma = tested on: LOX IMVI melanoma
# M14 melanoma = tested on: M14 melanoma
# NCI-H522 lung = tested on: NCI-H522 lung
# SK-MEL-28 melanoma = tested on: SK-MEL-28 melanoma
# UACC-62 melanoma = tested on: UACC-62 melanoma
# OVCAR-4 ovarian = tested on: OVCAR-4 ovarian
# MDA-MB-435 = tested on: MDA-MB-435
SMILES,TGI (A549 NSCLC) [µM],TGI (EKVX NSCLC) [µM],TGI (HCT-116 colon) [µM],TGI (HOP-92 NSCLC) [µM],TGI (LOX IMVI melanoma) [µM],TGI (M14 melanoma) [µM],TGI (NCI-H522 lung) [µM],TGI (SK-MEL-28 melanoma) [µM],TGI (UACC-62 melanoma) [µM],TGI (OVCAR-4 ovarian) [µM],TGI (MDA-MB-435) [µM]
O=C1OC2(OC2c2ccccc2)c2ccccc21 (stereo not given),> 100,> 100,> 100,> 100,> 100,> 100,> 100,> 100,> 100,–,–
CC(=O)C1=C(C)NC2C=CC=CN12 (stereo not given),> 100,> 100,> 100,> 100,> 100,> 100,> 100,> 100,> 100,> 100,–
CCCSc1ccc2[nH]c(/N=C/c3ccco3)cc2c1,> 100,68.8,> 100,> 100,> 100,> 100,78.2,> 100,> 100,> 100,> 100
CCCC(C)NC1=C(NC(C)=O)C(=O)c2ccccc2C1=O (stereo not given),> 100,> 100,> 100,> 100,> 100,> 100,> 100,> 100,> 100,> 100,–
O=C(CSc1nnc(Cc2ccccc2)o1)Nc1ccc([N+](=O)[O-])cc1,> 100,–,> 100,–,> 100,> 100,> 100,> 100,> 100,> 100,–
COC(=O)N/N=C(\C)C(CN1CCCCC1)C(C1=C(O)c2ccccc2OC1)c1ccccc1 (stereo not given),> 100,> 100,> 100,–,> 100,> 100,> 100,> 100,> 100,> 100,–
O=C1c2ccccc2CCCCCCCCCCC12OCCCO2,91.9,–,38.3,–,84.8,> 100,67.2,> 100,> 100,> 100,–
O=C1c2ccccc2C(=O)N1Cc1ccccc1-c1c2nc(c(-c3ccccc3CN3C(=O)c4ccccc4C3=O)c3ccc([nH]3)c(-c3ccccc3CN3C(=O)c4ccccc4C3=O)c3nc(c(-c4ccccc4CN4C(=O)c5ccccc5C4=O)c4ccc1[nH]4)C=C3)C=C2,> 100,–,> 100,> 100,> 100,> 100,> 100,> 100,> 100,> 100,–
Oc1cc(C2OCCCO2)cc(O)c1O,> 100,> 100,> 100,–,–,> 100,> 100,> 100,> 100,> 100,–
Cc1ccc(/C(O)=C/C(=O)C(=O)/C=C(\O)c2ccc(C)cc2C)c(C)c1,4.16,5.56,6.58,8.6,5.96,3.27,4.53,3.84,3.38,9.04,3.99
CC(=O)OC1CC2C(C)(C)OC(=O)CC(OC(C)=O)[C@]2(C)C2CCC3(C)C(=CCC3[C@H]3COC(=O)C3)[C@]12C (stereo not given in full),> 100,> 100,> 100,> 100,> 100,> 100,> 100,> 100,> 100,> 100,–
O=C1Nc2c(ccc(Cl)c2I)C1=O,> 100,36.8,33.4,–,37,29.4,30.6,32.7,33.8,31.6,–
COc1cc(C2SCC(=O)N2c2ccc(-c3ccc(-n4c(-c5ccccc5)nc5ccccc5c4=O)cc3)cc2)cc(OC)c1OC (stereo not given),> 100,> 100,35.1,> 100,–,> 100,62.3,> 100,> 100,> 100,> 100
O=C(Cc1ccccc1)NN1C(=O)C(Cl)C1c1ccc(O)cc1 (stereo not given),> 100,> 100,> 100,–,> 100,> 100,> 100,> 100,> 100,–,–
CC(C)C(=O)/C=C/c1ccc(Br)cc1,65.5,50.9,17.4,30.9,32.1,32.4,41.5,41,28,63.3,–
CC1=COC(C)(C=C(C#N)C#N)CC1 (stereo not given),> 100,> 100,> 100,–,–,> 100,–,> 100,> 100,> 100,> 100
CCCCCCCCCCCCCCCCCC(=O)O[C@H](COC(=O)CCCCCCCCCCC)COC(=O)CCCCCCCCCCCCCCC,> 100,–,> 100,> 100,> 100,> 100,–,> 100,> 100,> 100,–
CC(=O)Nc1cc2c(s1)CCC1CC(=O)NN=C21 (stereo not given),> 100,> 100,> 100,–,> 100,> 100,> 100,> 100,> 100,> 100,–
